# Reference: patent US9718790B2, “Triazine derivative and pharmaceutical composition having an analgesic activity comprising the same” (SHIONOGI & CO., LTD., priority 2010, dated 2017)
# Molecular target: human P2X3 receptor (Homo sapiens (Human), UniProt P56373)
# Experiment: Evaluation of human P2X3 receptor inhibitory activity (Fluo-3 calcium fluorescence, FDSS 3000, ATP stimulation);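 further: stimulus was 50 nM ATP with fluorescence followed for 3 min, and the response per well was peak post-ATP fluorescence divided by the reading at measurement start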
# Format: cell-based
# Conditions: human P2X3 receptor, Test Example 1
# Sequence of human P2X3 receptor (P56373 whole entry): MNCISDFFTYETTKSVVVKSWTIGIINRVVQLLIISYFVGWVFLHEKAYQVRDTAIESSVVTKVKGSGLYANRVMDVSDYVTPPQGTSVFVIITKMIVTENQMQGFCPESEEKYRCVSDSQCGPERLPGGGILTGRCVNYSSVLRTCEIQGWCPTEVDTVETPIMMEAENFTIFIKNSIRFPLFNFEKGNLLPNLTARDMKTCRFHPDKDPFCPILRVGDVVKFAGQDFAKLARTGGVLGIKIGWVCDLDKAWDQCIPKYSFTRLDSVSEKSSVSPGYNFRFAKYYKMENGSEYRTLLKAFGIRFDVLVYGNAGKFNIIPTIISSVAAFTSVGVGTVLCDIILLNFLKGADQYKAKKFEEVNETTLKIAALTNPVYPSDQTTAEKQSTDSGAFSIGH
row,Compound,IC50 [nM]
1,Cc1nsc(Oc2ccc(/N=c3\[nH]c(=O)n(C[C@H](O)CO)c(=O)n3Cc3ccc(F)cc3)cc2)n1 [Compound I-2607],20
2,CCn1c(=O)[nH]/c(=N\c2ccc(Oc3nc(C(N)=O)cs3)cc2)n(Cc2ccc(Cl)cc2)c1=O [Compound I-2608],6
3,CCn1c(=O)[nH]/c(=N\c2ccc(Oc3ncc(C(N)=O)s3)cc2)n(Cc2ccc(Cl)cc2)c1=O [Compound I-2609],2
4,Cc1cccc(Oc2ccc(/N=c3\[nH]c(=O)n(CC(CO)CO)c(=O)n3Cc3ccc(Cl)cc3)cc2)n1 [Compound I-2610],12
5,CCn1c(=O)[nH]/c(=N\c2ccc(Oc3cccnn3)cc2)n(Cc2ccc(Cl)cc2)c1=O [Compound I-2611],14
6,CCn1c(=O)[nH]/c(=N\c2ccc(Oc3ccc(C#N)cc3)nc2)n(Cc2ccc(Cl)cc2)c1=O [Compound I-2613],137
7,CCOC(=O)CNc1ccc(Oc2ccc(/N=c3\[nH]c(=O)n(CC)c(=O)n3Cc3ccc(Cl)cc3)cc2)cn1 [Compound I-2614],27
8,CC1(Cn2c(=O)[nH]/c(=N\c3ccc(OCC4CC4)cc3)n(Cc3ccc(Cl)cc3)c2=O)COC(C)(C)OC1 [Compound I-2615],7
9,CC(CO)(CO)Cn1c(=O)[nH]/c(=N\c2ccc(OCC3CC3)cc2)n(Cc2ccc(Cl)cc2)c1=O [Compound I-2616],12
10,CC(CO)(CO)Cn1c(=O)[nH]/c(=N\c2ccc(OCC3CC3)cc2)n(Cc2ccc(F)cc2)c1=O [Compound I-2617],42
11,CCOC(=O)Cn1c(=O)[nH]/c(=N\c2ccc(Oc3nccs3)cc2)n(Cc2ccc(Cl)cc2)c1=O [Compound I-2618],7
12,CCOC(=O)Cn1c(=O)[nH]/c(=N\c2ccc(Oc3ncc(C)s3)cc2)n(Cc2ccc(Cl)cc2)c1=O [Compound I-2619],6
13,CCn1c(=O)[nH]/c(=N\c2ccc(Oc3ccc(C(N)=O)cc3)nc2)n(Cc2ccc(Cl)cc2)c1=O [Compound I-2620],110
14,CCn1c(=O)[nH]/c(=N\c2ccc(Oc3ccc(C(=O)O)cc3)nc2)n(Cc2ccc(Cl)cc2)c1=O [Compound I-2621],265
15,CCn1c(=O)[nH]/c(=N\c2ccc(Oc3ccc(NCC(=O)O)nc3)cc2)n(Cc2ccc(Cl)cc2)c1=O [Compound I-2622],5
16,O=C(O)Cn1c(=O)[nH]/c(=N\c2ccc(Oc3nccs3)cc2)n(Cc2ccc(Cl)cc2)c1=O [Compound I-2623],506
17,Cc1cnc(Oc2ccc(/N=c3\[nH]c(=O)n(CC(=O)O)c(=O)n3Cc3ccc(Cl)cc3)cc2)s1 [Compound I-2624],368
18,CCn1c(=O)[nH]/c(=N\c2ccc(Oc3ccc(NCC(N)=O)nc3)cc2)n(Cc2ccc(Cl)cc2)c1=O [Compound I-2625],3
19,CCn1c(=O)[nH]/c(=N\c2ccc(Oc3ccc(NCC(=O)NC)nc3)cc2)n(Cc2ccc(Cl)cc2)c1=O [Compound I-2626],5
20,CCOC(=O)Cn1c(=O)[nH]/c(=N\c2ccc(Oc3ccon3)cc2)n(Cc2ccc(Cl)cc2)c1=O [Compound I-2627],7
21,CCOC(=O)Cn1c(=O)[nH]/c(=N\c2ccc(Oc3ncns3)cc2)n(Cc2ccc(Cl)cc2)c1=O [Compound I-2628],4
22,CCOC(=O)Cn1c(=O)[nH]/c(=N\c2ccc(Oc3cnsn3)cc2)n(Cc2ccc(Cl)cc2)c1=O [Compound I-2629],6
23,CC1(Cn2c(=O)[nH]/c(=N\c3ccc(Oc4ccon4)cc3)n(Cc3ccc(Cl)cc3)c2=O)COC(C)(C)OC1 [Compound I-2630],3
24,CCn1c(=O)[nH]/c(=N\c2ccc([S+]([O-])c3ccc(C(=O)O)cc3)cc2)n(Cc2ccc(Cl)cc2)c1=O (stereo not drawn) [Compound I-2631],475

row,Compound,IC50 [nM]
1,COC(=O)CCn1c(=O)[nH]/c(=N\c2ccc(Oc3cccc(C#N)n3)cc2)n(Cc2ccc(C)cc2)c1=O [Compound I-2633],2
2,Cc1ccc(Cn2c(=O)n(CCC(=O)O)c(=O)[nH]/c2=N\c2ccc(Oc3cccc(C#N)n3)cc2)cc1 [Compound I-2634],11
3,Cc1ccc(Cn2c(=O)n(CCC(=O)O)c(=O)[nH]/c2=N\c2ccc(Oc3ccc(C#N)cn3)cc2)cc1 [Compound I-2635],8
4,COC(=O)CCn1c(=O)[nH]/c(=N\c2ccc(Oc3ccc(C#N)cn3)cc2)n(Cc2ccc(C)cc2)c1=O [Compound I-2636],2
5,CCn1c(=O)[nH]/c(=N\c2cccc(Oc3nccs3)c2)n(Cc2ccc(Cl)cc2)c1=O [Compound I-2637],177
6,CCn1c(=O)[nH]/c(=N\c2ccc(Oc3cncc(C)n3)cc2)n(Cc2ccc(Cl)cc2)c1=O [Compound I-2638],15
7,CCn1c(=O)[nH]/c(=N\c2ccc(Oc3cccc(CO)n3)cc2)n(Cc2ccc(Cl)cc2)c1=O [Compound I-2639],26
8,Cc1ccc(Cn2c(=O)n(CCCO)c(=O)[nH]/c2=N\c2ccc(Oc3cccc(C#N)n3)cc2)cc1 [Compound I-2640],2
9,COc1cccc(Oc2ccc(/N=c3\[nH]c(=O)n(CC(CO)CO)c(=O)n3Cc3ccc(Cl)cc3)cc2)n1 [Compound I-2641],12
10,CCn1c(=O)[nH]/c(=N\c2ccc(Oc3cnccn3)cc2)n(Cc2ccc(Cl)cc2)c1=O [Compound I-2642],11
11,O=C(O)Cn1c(=O)[nH]/c(=N\c2ccc(Oc3cnsn3)cc2)n(Cc2ccc(Cl)cc2)c1=O [Compound I-2643],491
12,NC(=O)Cn1c(=O)[nH]/c(=N\c2ccc(Oc3nccs3)cc2)n(Cc2ccc(Cl)cc2)c1=O [Compound I-2644],17
13,CNC(=O)Cn1c(=O)[nH]/c(=N\c2ccc(Oc3nccs3)cc2)n(Cc2ccc(Cl)cc2)c1=O [Compound I-2645],18
14,O=C(Cn1c(=O)[nH]/c(=N\c2ccc(Oc3nccs3)cc2)n(Cc2ccc(Cl)cc2)c1=O)NCCO [Compound I-2646],8
15,Cc1cnc(Oc2ccc(/N=c3\[nH]c(=O)n(CC(N)=O)c(=O)n3Cc3ccc(Cl)cc3)cc2)s1 [Compound I-2647],16
16,CNC(=O)Cn1c(=O)[nH]/c(=N\c2ccc(Oc3ncc(C)s3)cc2)n(Cc2ccc(Cl)cc2)c1=O [Compound I-2648],14
17,Cc1cnc(Oc2ccc(/N=c3\[nH]c(=O)n(CC(=O)NCCO)c(=O)n3Cc3ccc(Cl)cc3)cc2)s1 [Compound I-2649],6
18,COC(=O)CCn1c(=O)[nH]/c(=N\c2ccc(Oc3cccc(F)n3)cc2)n(Cc2ccc(Cl)cc2)c1=O [Compound I-2650],3
19,COC(=O)CCn1c(=O)[nH]/c(=N\c2ccc(Oc3nc(C)ns3)cc2)n(Cc2ccc(Cl)cc2)c1=O [Compound I-2651],2
20,COC(=O)CCn1c(=O)[nH]/c(=N\c2ccc(Oc3ncns3)cc2)n(Cc2ccc(Cl)cc2)c1=O [Compound I-2652],3
21,O=C(O)CCn1c(=O)[nH]/c(=N\c2ccc(Oc3cccc(F)n3)cc2)n(Cc2ccc(Cl)cc2)c1=O [Compound I-2653],9
22,NC(=O)CCn1c(=O)[nH]/c(=N\c2ccc(Oc3cccc(F)n3)cc2)n(Cc2ccc(Cl)cc2)c1=O [Compound I-2654],9
23,CNC(=O)CCn1c(=O)[nH]/c(=N\c2ccc(Oc3cccc(F)n3)cc2)n(Cc2ccc(Cl)cc2)c1=O [Compound I-2655],5
24,CNC(=O)Nc1cc(Oc2ccc(/N=c3\[nH]c(=O)n(C)c(=O)n3Cc3ccc(Cl)cc3)cc2)ccn1 [Compound I-2656],6
